Columns and labels:
Type in all cases: in vivo
[1] = system: upland rice (Oryza sp., var. Tebonnet, RICE); assay: Pre-emerge test, crop safety; conditions: pre-emerge, 14 days after application; for phytotoxicity rating RICE (crop damage): scale 0-100; for phytotoxicity rating RICE: rating scale 0-100
Summary of the method: (§1)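 Herbicidal damage is scored 0 (none) to 100 (complete plant death) two weeks after a simulated field spray. Rates span 15–1000 g ai/ha, delivered in acetone at 187 l/ha. For post-emergence treatments, plants have 2–3 leaves and the spray carries 0.25% v/v non-ionic surfactant.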

[2] = system: field corn (Zea mays L., var. Dekalb 535, CORN); assay: Pre-emerge test, crop safety; conditions: pre-emerge, 14 days after application; for phytotoxicity rating CORN (crop damage): scale 0-100; for phytotoxicity rating CORN: rating scale 0-100
Summary of the method: as §1

[3] = system: upland rice (Oryza sp., var. Tebonnet, RICE); assay: Post-emerge test, crop safety; conditions: post-emerge, 14 days after application, rating scale 0-100
Summary of the method: (§2)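 Visual ratings on a 0-100 scale (0 no damage, 100 all plants dead) were taken at 14 days after treatment. Rates of 15-1000 g ai/ha in acetone, 187 l/ha, were sprayed onto soil one day after planting (pre-emerge) or onto 2-3 leaf plants with 0.25% v/v surfactant (post-emerge).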

[4] = system: field corn (Zea mays L., var. Dekalb 535, CORN); assay: Post-emerge test, crop safety; conditions: post-emerge, 14 days after application, rating scale 0-100
Summary of the method: as §2

[5] = system: barnyardgrass (Echinochloa crus-galli, ECHCG); assay: Post-emerge test, greenhouse herbicide activity screening; conditions: post-emerge, 14 days after application, rating scale 0-100
Summary of the method: (§3)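 Compounds in acetone were track-sprayed at 15–1000 g ai/ha: pre-emergence onto soil sown the previous day, then top-watered to incorporate and later bottom-watered; post-emergence onto 2–3 leaf plants with 0.25% v/v surfactant, bottom-watered only. Ratings on a 0–100 phytotoxicity scale were taken at day 14.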

[6] = system: sicklepod (Cassia obtusifolia, CASOB); assay: as above; conditions: post-emerge, 14 days after application, rating scale 0-100
Summary of the method: as §3

[7] = system: velvetleaf (Abutilon theophrasti, ABUTH); assay: as above; conditions: post-emerge, 14 days after application, rating scale 0-100
Summary of the method: as §3

[8] = system: ivyleaf morningglory (Ipomoea hederacea, IPOHE); assay: as above; conditions: post-emerge, 14 days after application, rating scale 0-100
Summary of the method: as §3

[9] = system: lambsquarters (Chenopodium album, CHEAL); assay: as above; conditions: post-emerge, 14 days after application, rating scale 0-100
Summary of the method: as §3

[10] = system: redroot pigweed (Amaranthus retroflexus, AMARE); assay: as above; conditions: post-emerge, 14 days after application
Summary of the method: as §3

[11] = system: green foxtail (Setaria viridis, SETVI); assay: as above; conditions: post-emerge, 14 days after application, rating scale 0-100
Summary of the method: as §3

[12] = system: johnsongrass (Sorghum halepense, SORHA); assay: as above; conditions: post-emerge, 14 days after application, rating scale 0-100
Summary of the method: as §3

[13] = system: large crabgrass (Digitaria sanguinalis, DIGSA); assay: as above; conditions: post-emerge, 14 days after application, rating scale 0-100
Summary of the method: as §3

[14] = system: redroot pigweed (Amaranthus retroflexus, AMARE); assay: Pre-emerge test, greenhouse herbicide activity screening; conditions: pre-emerge, 14 days after application
Summary of the method: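 Compounds in acetone were track-sprayed at 15-1000 g ai/ha (187 l/ha) on sandy loam pots: pre-emerge one day after seeding, post-emerge at 2-3 leaf stage with 0.25% v/v non-ionic surfactant. Phytotoxicity was rated 14 days later on a 0 (no damage) to 100 (complete death) scale.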

[15] = system: barnyardgrass (Echinochloa crus-galli, ECHCG); assay: as above; conditions: pre-emerge, 14 days after application
Summary of the method: as §2

[16] = system: sicklepod (Cassia obtusifolia, CASOB); assay: as above; conditions: pre-emerge, 14 days after application
Summary of the method: as §2

[17] = system: velvetleaf (Abutilon theophrasti, ABUTH); assay: as above; conditions: pre-emerge, 14 days after application
Summary of the method: as §2

[18] = system: ivyleaf morningglory (Ipomoea hederacea, IPOHE); assay: as above; conditions: pre-emerge, 14 days after application
Summary of the method: as §2

[19] = system: lambsquarters (Chenopodium album, CHEAL); assay: as above; conditions: pre-emerge, 14 days after application
Summary of the method: as §2

[20] = system: green foxtail (Setaria viridis, SETVI); assay: as above; conditions: pre-emerge, 14 days after application
Summary of the method: as §2

[21] = system: johnsongrass (Sorghum halepense, SORHA); assay: as above; conditions: pre-emerge, 14 days after application
Summary of the method: as §2

[22] = system: large crabgrass (Digitaria sanguinalis, DIGSA); assay: as above; conditions: pre-emerge, 14 days after application
Summary of the method: as §2

[23] = 250 g ai/ha, rating scale 0-100

COc1c(Cl)cc(F)c(-n2c(=O)cc(C(F)(F)F)n(C)c2=O)c1NC(=O)c1ccc2ccccc2c1OC [2-153]
phytotoxicity rating RICE (crop damage) ([1]; 63 g ai/ha): 0
phytotoxicity rating RICE (crop damage) ([1]; 250 g ai/ha): 20
phytotoxicity rating CORN (crop damage) ([2]; 63 g ai/ha): 0
phytotoxicity rating CORN (crop damage) ([2]; 250 g ai/ha): 0
RICE phytotoxicity rating (crop damage) ([3]; 63 g ai/ha): 0
RICE phytotoxicity rating (crop damage) ([3]; 250 g ai/ha): 10
CORN phytotoxicity rating (crop damage) ([4]; 63 g ai/ha): 5
CORN phytotoxicity rating (crop damage) ([4]; 250 g ai/ha): 5
ECHCG phytotoxicity rating ([5]; 63 g ai/ha): 10
ECHCG phytotoxicity rating ([5]; 250 g ai/ha): 20
CASOB phytotoxicity rating ([6]; 63 g ai/ha): 0
CASOB phytotoxicity rating ([6]; 250 g ai/ha): 30
ABUTH phytotoxicity rating ([7]; 63 g ai/ha): 95
ABUTH phytotoxicity rating ([7]; 250 g ai/ha): 100
IPOHE phytotoxicity rating ([8]; 63 g ai/ha): 100
IPOHE phytotoxicity rating ([8]; 250 g ai/ha): 95
CHEAL phytotoxicity rating ([9]; 63 g ai/ha): 80
CHEAL phytotoxicity rating ([9]; 250 g ai/ha): 95
AMARE phytotoxicity rating ([10]; 63 g ai/ha, rating scale 0-100): 60
AMARE phytotoxicity rating [10, 23]: 90
SETVI phytotoxicity rating ([11]; 63 g ai/ha): 20
SETVI phytotoxicity rating ([11]; 250 g ai/ha): 30
SORHA phytotoxicity rating ([12]; 63 g ai/ha): 0
SORHA phytotoxicity rating ([12]; 250 g ai/ha): 20
DIGSA phytotoxicity rating ([13]; 63 g ai/ha): 0
DIGSA phytotoxicity rating ([13]; 250 g ai/ha): 10
phytotoxicity rating AMARE ([14]; 63 g ai/ha, scale 0-100): 100
phytotoxicity rating AMARE ([14]; 250 g ai/ha, scale 0-100): 100
phytotoxicity rating ECHCG ([15]; 63 g ai/ha, scale 0-100): 0
phytotoxicity rating ECHCG ([15]; 250 g ai/ha, scale 0-100): 0
phytotoxicity rating CASOB ([16]; 63 g ai/ha, scale 0-100): 0
phytotoxicity rating CASOB ([16]; 250 g ai/ha, scale 0-100): 0
phytotoxicity rating ABUTH ([17]; 63 g ai/ha, scale 0-100): 20
phytotoxicity rating ABUTH ([17]; 250 g ai/ha, scale 0-100): 50
phytotoxicity rating IPOHE ([18]; 63 g ai/ha, scale 0-100): 0
phytotoxicity rating IPOHE ([18]; 250 g ai/ha, scale 0-100): 0
phytotoxicity rating CHEAL ([19]; 63 g ai/ha, scale 0-100): 70
phytotoxicity rating CHEAL ([19]; 250 g ai/ha, scale 0-100): 90
phytotoxicity rating SETVI ([20]; 63 g ai/ha, scale 0-100): 30
phytotoxicity rating SETVI ([20]; 250 g ai/ha, scale 0-100): 90
phytotoxicity rating SORHA ([21]; 63 g ai/ha, scale 0-100): 10
phytotoxicity rating SORHA ([21]; 250 g ai/ha, scale 0-100): 0
phytotoxicity rating DIGSA ([22]; 63 g ai/ha, scale 0-100): 0
phytotoxicity rating DIGSA ([22]; 250 g ai/ha, scale 0-100): 40

CCOC(=O)C(Cl)Cc1cc(Cl)cc(F)c1-n1c(=O)cc(C(F)(F)F)n(C)c1=O (stereo not shown) [14-60]
phytotoxicity rating RICE ([1]; 63 g ai/ha): 0
phytotoxicity rating RICE ([1]; 250 g ai/ha): 20
phytotoxicity rating CORN ([2]; 63 g ai/ha): 0
phytotoxicity rating CORN ([2]; 250 g ai/ha): 0
Post-emerge Herbicidal Activity RICE (crop damage rating) ([3]; 63 g ai/ha): 10
Post-emerge Herbicidal Activity RICE (crop damage rating) ([3]; 250 g ai/ha): 20
Post-emerge Herbicidal Activity CORN (crop damage rating) ([4]; 63 g ai/ha): 0
Post-emerge Herbicidal Activity CORN (crop damage rating) ([4]; 250 g ai/ha): 60
Post-emerge Herbicidal Activity ECHCG (phytotoxicity rating) ([5]; 63 g ai/ha): 50
Post-emerge Herbicidal Activity ECHCG (phytotoxicity rating) ([5]; 250 g ai/ha): 75
Post-emerge Herbicidal Activity CASOB (phytotoxicity rating) ([6]; 63 g ai/ha): 40
Post-emerge Herbicidal Activity CASOB (phytotoxicity rating) ([6]; 250 g ai/ha): 70
Post-emerge Herbicidal Activity ABUTH (phytotoxicity rating) ([7]; 63 g ai/ha): 100
Post-emerge Herbicidal Activity ABUTH (phytotoxicity rating) ([7]; 250 g ai/ha): 100
Post-emerge Herbicidal Activity IPOHE (phytotoxicity rating) ([8]; 63 g ai/ha): 100
Post-emerge Herbicidal Activity IPOHE (phytotoxicity rating) ([8]; 250 g ai/ha): 100
Post-emerge Herbicidal Activity CHEAL (phytotoxicity rating) ([9]; 63 g ai/ha): 99
Post-emerge Herbicidal Activity CHEAL (phytotoxicity rating) ([9]; 250 g ai/ha): 100
Post-emerge Herbicidal Activity AMARE (phytotoxicity rating) ([10]; 63 g ai/ha, rating scale 0-100 (0 no damage, 100 complete death)): 70
Post-emerge Herbicidal Activity AMARE (phytotoxicity rating) [10, 23]: 100
Post-emerge Herbicidal Activity SETVI (phytotoxicity rating) ([11]; 63 g ai/ha): 20
Post-emerge Herbicidal Activity SETVI (phytotoxicity rating) ([11]; 250 g ai/ha): 30
Post-emerge Herbicidal Activity SORHA (phytotoxicity rating) ([12]; 63 g ai/ha): 20
Post-emerge Herbicidal Activity SORHA (phytotoxicity rating) ([12]; 250 g ai/ha): 50
Post-emerge Herbicidal Activity DIGSA (phytotoxicity rating) ([13]; 63 g ai/ha): 10
Post-emerge Herbicidal Activity DIGSA (phytotoxicity rating) ([13]; 250 g ai/ha): 60
phytotoxicity rating AMARE ([14]; 63 g ai/ha, rating scale 0-100): 100
phytotoxicity rating AMARE [14, 23]: 100
phytotoxicity rating ECHCG ([15]; 63 g ai/ha, rating scale 0-100): 0
phytotoxicity rating ECHCG [15, 23]: 20
phytotoxicity rating CASOB ([16]; 63 g ai/ha, rating scale 0-100): 0
phytotoxicity rating CASOB [16, 23]: 0
phytotoxicity rating ABUTH ([17]; 63 g ai/ha, rating scale 0-100): 100
phytotoxicity rating ABUTH [17, 23]: 100
phytotoxicity rating IPOHE ([18]; 63 g ai/ha, rating scale 0-100): 90
phytotoxicity rating IPOHE [18, 23]: 100
phytotoxicity rating CHEAL ([19]; 63 g ai/ha, rating scale 0-100): 100
phytotoxicity rating CHEAL [19, 23]: 100
phytotoxicity rating SETVI ([20]; 63 g ai/ha, rating scale 0-100): 10
phytotoxicity rating SETVI [20, 23]: 60
phytotoxicity rating SORHA ([21]; 63 g ai/ha, rating scale 0-100): 0
phytotoxicity rating SORHA [21, 23]: 10
phytotoxicity rating DIGSA ([22]; 63 g ai/ha, rating scale 0-100): 0
phytotoxicity rating DIGSA [22, 23]: 30
